Measured values: PMC4292808 (Journal of Medicinal Chemistry, 2014)
One block for each compound: values may come before it.

Experiments:
TAK1 [1] = molecular target: T1, TAK1 (Homo sapiens, UniProt O43318); test: biochemical
T1 sequence (O43318 1-303 limits assumed): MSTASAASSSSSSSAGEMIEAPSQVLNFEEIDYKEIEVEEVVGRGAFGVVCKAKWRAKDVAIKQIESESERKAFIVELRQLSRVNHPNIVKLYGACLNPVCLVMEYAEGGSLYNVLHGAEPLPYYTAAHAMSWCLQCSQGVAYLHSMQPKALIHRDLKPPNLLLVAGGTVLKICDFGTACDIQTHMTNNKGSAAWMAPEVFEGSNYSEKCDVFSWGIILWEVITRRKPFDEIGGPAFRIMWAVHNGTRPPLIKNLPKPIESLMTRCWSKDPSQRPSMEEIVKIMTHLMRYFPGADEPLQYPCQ

[2] = test system: signaling in Gen2.2 cells; test: CL097; assay type: cell-based; conditions: human Gen2.2 cells, 1 μM, 1 h pretreatment
[3] = test system: phosphorylation of p105, p38 and JNK1/2 in MEFs; test: IL-1α-induced signaling, Western blot; assay type: cell-based, mouse; conditions: MEFs stimulated with IL-1α
[4] = test system: phosphorylation of p105, p38 and JNK1/2 in 293 IL-1R cells; test: IL-1α-induced signaling, Western blot; assay type: cell-based; conditions: human 293 IL-1R cells stimulated with IL-1α
[5] = In vivo pharmacokinetic studies; conditions: male, Swiss albino, mouse, plasma, iv, 1 mg/kg
[6] = test system: phosphorylation of IKKα/β and degradation of IκB-α in L929 cells; test: TNFα-induced NF-κB signaling, Western blot; assay type: cell-based, mouse
[7] = test system: BCR-ABL-dependent Ba/F3 cells; test: Ba/F3 cell proliferation assay; assay type: cell-based; conditions: Mus musculus, BaF3, read-out: cell growth inhibition
TAK1 [8] = molecular target: T2, TAK1 (Homo sapiens, UniProt O43318); test: KiNativ HUH7 lysate; assay type: binding; conditions: in words
T2 sequence (O43318 1-606): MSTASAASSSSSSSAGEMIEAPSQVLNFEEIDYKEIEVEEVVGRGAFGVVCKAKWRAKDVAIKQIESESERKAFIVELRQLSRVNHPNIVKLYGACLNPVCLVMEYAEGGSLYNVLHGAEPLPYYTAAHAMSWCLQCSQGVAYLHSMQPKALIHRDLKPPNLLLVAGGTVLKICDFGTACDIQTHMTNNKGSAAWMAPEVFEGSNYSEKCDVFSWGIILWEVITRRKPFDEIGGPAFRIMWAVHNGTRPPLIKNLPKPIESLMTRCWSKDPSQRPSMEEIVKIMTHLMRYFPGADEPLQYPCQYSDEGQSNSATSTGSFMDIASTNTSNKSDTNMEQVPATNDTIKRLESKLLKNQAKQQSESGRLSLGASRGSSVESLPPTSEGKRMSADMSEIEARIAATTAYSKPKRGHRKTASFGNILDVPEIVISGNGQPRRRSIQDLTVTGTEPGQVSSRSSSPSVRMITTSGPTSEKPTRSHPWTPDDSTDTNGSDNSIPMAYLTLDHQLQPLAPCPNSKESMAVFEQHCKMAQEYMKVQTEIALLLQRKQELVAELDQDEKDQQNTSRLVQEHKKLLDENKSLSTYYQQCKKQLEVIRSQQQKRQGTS

MAP4K2 = molecular target: T3, MAP4K2 (Homo sapiens, UniProt Q12851); test: KiNativ HUH7 lysate; assay type: binding; conditions: in words
T3 sequence (Q12851 1-820): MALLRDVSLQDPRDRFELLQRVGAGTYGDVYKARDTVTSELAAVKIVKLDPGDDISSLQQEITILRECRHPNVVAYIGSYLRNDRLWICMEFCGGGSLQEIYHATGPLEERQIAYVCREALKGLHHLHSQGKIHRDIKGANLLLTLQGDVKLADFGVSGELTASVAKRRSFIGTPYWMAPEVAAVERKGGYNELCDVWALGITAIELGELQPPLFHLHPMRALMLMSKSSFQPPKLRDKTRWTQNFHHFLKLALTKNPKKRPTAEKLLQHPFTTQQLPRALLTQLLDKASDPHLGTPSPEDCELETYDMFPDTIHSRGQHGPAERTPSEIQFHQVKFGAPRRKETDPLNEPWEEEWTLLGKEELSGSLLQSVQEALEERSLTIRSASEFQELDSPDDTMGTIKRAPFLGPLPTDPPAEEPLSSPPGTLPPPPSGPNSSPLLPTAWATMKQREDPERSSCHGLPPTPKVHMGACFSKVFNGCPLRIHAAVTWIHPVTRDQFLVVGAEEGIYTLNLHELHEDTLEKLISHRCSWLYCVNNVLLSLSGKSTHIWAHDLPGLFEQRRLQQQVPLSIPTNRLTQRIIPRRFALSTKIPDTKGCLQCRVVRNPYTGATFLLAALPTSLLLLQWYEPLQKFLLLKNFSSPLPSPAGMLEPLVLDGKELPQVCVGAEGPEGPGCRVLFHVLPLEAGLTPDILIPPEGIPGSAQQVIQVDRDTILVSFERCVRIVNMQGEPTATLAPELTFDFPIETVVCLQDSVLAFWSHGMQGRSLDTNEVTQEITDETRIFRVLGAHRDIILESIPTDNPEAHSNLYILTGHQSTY

[9] = test system: phosphorylation of p38 MAPK and SMAD2 in WT MEFs; assay type: cell-based, mouse; conditions: WT and TAK1-deficient MEFs
[10] = test system: phosphorylation of p38 MAPK in TAK1-deficient MEFs; test: IL-1 and TGFβ-induced signaling in TAK1-deficient MEFs, Western blot; assay type: cell-based, mouse; conditions: 500 nM
p38α = p38α (Homo sapiens, UniProt Q16539); test: SelectScreen enzymatic assay; assay type: biochemical; conditions: KiNativ and enzymatic assays, in words
Chain of p38α (Q16539 whole entry): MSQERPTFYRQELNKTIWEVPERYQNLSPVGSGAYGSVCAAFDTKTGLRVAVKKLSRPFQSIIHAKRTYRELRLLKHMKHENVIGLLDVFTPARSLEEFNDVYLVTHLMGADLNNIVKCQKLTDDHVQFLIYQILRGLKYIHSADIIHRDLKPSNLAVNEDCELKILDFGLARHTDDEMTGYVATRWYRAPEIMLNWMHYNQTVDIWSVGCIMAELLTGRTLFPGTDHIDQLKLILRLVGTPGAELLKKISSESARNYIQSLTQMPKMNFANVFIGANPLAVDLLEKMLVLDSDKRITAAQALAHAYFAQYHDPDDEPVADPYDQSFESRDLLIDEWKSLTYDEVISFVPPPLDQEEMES

[11] = 100 nM, 30 min pretreatment, TNFα 5 min, Western blot

IC50 (TAK1 [1]): 0.015 µM | half-life [5]: 2 h
SMILES: CCN1CCN(Cc2ccc(NC(=O)c3ccc(C)c(Oc4ccnc5[nH]ccc45)c3)cc2C(F)(F)F)CC1 [Compound 1, 3-((1H-Pyrrolo[2,3-b]pyridin-4-yl)oxy)-N-(4-((4-ethylpiperazin-1-yl)methyl)-3-(trifluoromethyl)phenyl)-4-methylbenzamide]
CL097-induced signaling [2]: blocked signaling | phosphorylation levels of p105, p38 and JNK1/2 [3]: inhibited in a dose-dependent manner | phosphorylation levels of p105, p38 and JNK1/2 [4]: inhibited in a dose-dependent manner | effect on TNFα-induced phosphorylation of IKKα/β and degradation of IκB-α [6, 11]: comparable cellular potency

SMILES: CCN1CCN(Cc2ccc(NC(=O)c3ccc(C)c(/C=C/c4cnc5[nH]ccc5c4OC)c3)cc2C(F)(F)F)CC1 [Compound 2, (E)-N-(4-((4-Ethylpiperazin-1-yl)methyl)-3-(trifluoromethyl)phenyl)-3-(2-(4-methoxy-1H-pyrrolo[2,3-b]pyridin-5-yl)vinyl)-4-methylbenzamide]
inhibition at 0.01 µM [7]: > 50% | effect on TNFα-induced phosphorylation of IKKα/β and degradation of IκB-α [6, 11]: comparable cellular potency

clearance at 24 h [5]: 65.8 mL/min/kg
SMILES: CCN1CCN(Cc2ccc(NC(=O)c3ccc(C)c(Oc4ncnc5[nH]ccc45)c3)cc2C(F)(F)F)CC1 [Compound 3]

clearance at 24 h [5]: 99.2 mL/min/kg
SMILES: CCN1CCN(Cc2ccc(NC(=O)c3ccc(C)c(Oc4ncnc5[nH]ncc45)c3)cc2C(F)(F)F)CC1 [Compound 4]

clearance at 24 h [5]: 26.5 mL/min/kg
SMILES: CCN1CCN(Cc2ccc(NC(=O)c3ccc(C)c(Oc4ncnc5[nH]c(C)cc45)c3)cc2C(F)(F)F)CC1 [Compound 5]

activity against TAK1 (TAK1 [8]): inactive | activity against MAP4K2 (MAP4K2): inactive
SMILES: CCN1CCN(Cc2ccc(NC(=O)c3ccc(C)c(Oc4ccnc(C(=O)NC)c4)c3)cc2C(F)(F)F)CC1 [Compound 9]

SMILES: CCN1CCN(Cc2ccc(NC(=O)c3cccc(Oc4ccnc5[nH]ccc45)c3)cc2C(F)(F)F)CC1 [Compound 10]
inhibition at 0.01 µM [7]: > 50%

SMILES: CCN1CCN(Cc2ccc(C(=O)Nc3ccc(C)c(Oc4ccnc5[nH]ccc45)c3)cc2C(F)(F)F)CC1 [Compound 11]
effect on TNFα-induced phosphorylation of IKKα/β and degradation of IκB-α [6, 11]: no effect

SMILES: Cc1cn(-c2cc(NC(=O)c3ccc(C)c(Oc4ccnc5[nH]ccc45)c3)cc(C(F)(F)F)c2)cn1 [Compound 12]
effect on TNFα-induced phosphorylation of IKKα/β and degradation of IκB-α [6, 11]: no effect

SMILES: CNc1cc(Oc2cc(C(=O)Nc3cc(-n4cnc(C)c4)cc(C(F)(F)F)c3)ccc2C)ncn1 [Compound 16]
IL-1 and TGFβ-induced p38 MAPK phosphorylation [9]: dose-dependent inhibition | TGFβ-induced phosphorylation of SMAD2 [9]: did not inhibit | CL097-induced signaling [2]: not able to block | effect on TNFα-induced phosphorylation of IKKα/β and degradation of IκB-α [6, 11]: no effect | IL-1-induced phosphorylation of p38 [10]: complete inhibition

SMILES: CNc1cc(Oc2cc(C(=O)Nc3cc(N4CCN(C)CC4)cc(C(F)(F)F)c3)ccc2C)ncn1 [Compound 17]
IL-1 and TGFβ-induced p38 MAPK phosphorylation [9]: dose-dependent inhibition | TGFβ-induced phosphorylation of SMAD2 [9]: did not inhibit | effect on TNFα-induced phosphorylation of IKKα/β and degradation of IκB-α [6, 11]: no effect | effect on TNFα-induced phosphorylation of IKKα/β and degradation of IκB-α ([6]; concentrations up to 1 μM): not very effective | IL-1-induced phosphorylation of p38 [10]: complete inhibition

activity against p38α (p38α): inactive
SMILES: CCN1CCN(Cc2ccc(NC(=O)c3cccc(CCc4cnc5[nH]ccc5c4OC)c3)cc2C(F)(F)F)CC1 [Compound 23]

activity against p38α (p38α): inactive
SMILES: CCN1CCN(Cc2ccc(NC(=O)c3cccc(/C=C/c4cnc5[nH]ccc5c4OC)c3)cc2C(F)(F)F)CC1 [Compound 24]

SMILES: COc1cc(O)c2c(c1)/C=C/C[C@H](O)[C@H](O)C(=O)/C=C\C[C@H](C)OC2=O [Compound 37, 5Z-7-oxozeaenol, reference compound]
TGFβ-induced phosphorylation of SMAD2 [9]: inhibited phosphorylation of both p38 and SMAD2

SMILES: C[S+]([O-])c1ccc(-c2nc(-c3ccc(F)cc3)c(-c3ccncc3)[nH]2)cc1 (centres unmarked) [Compound 38, SB203580, reference compound]
effect on TNFα-induced phosphorylation of IKKα/β and degradation of IκB-α [6, 11]: no effect

SMILES: CNC(=O)c1ccc(C)c(-n2c(C)cc(OCc3ccc(F)cc3F)c(Br)c2=O)c1 [Compound 39, PH-797804, reference compound]
effect on TNFα-induced phosphorylation of IKKα/β and degradation of IκB-α [6, 11]: no effect

SMILES: CCN1CCN(Cc2ccc(NC(=O)c3ccc(OC)c(Oc4ncnc5[nH]ccc45)c3)cc2C(F)(F)F)CC1 [S1]
CL097-induced signaling [2]: only partially inhibited signaling
